Measurements: patent US20250099482A1, “TIP60 NEURO-EPIGENETIC MODULATORS” (Drexel University, priority 2023, published 2025)

Experiments:
[1] = system: Drosophila Tip60 knockdown model; assay: In vivo larval locomotor speed assay in Tip60-RNAi knockdown model; conditions: Tip60-RNAi larvae, compound in fly food, vs DMSO vehicle; for rescue of locomotor ability (larval speed): 10 nM to 100 μM
GST-Tip60 protein = biological target: T1, GST-Tip60 protein (Homo sapiens, UniProt Q92993); assay: In vitro surface plasma resonance (SPR) Tip60-compound binding; conditions: for Corrected Response: DMSO corrected
T1 construct: purchased Abcam ab2686960
Description: SPR protein-compound binding interactions were analyzed on Biacore 3000 biosensor (Global Cytiva Lifesciences) at 25° C. PBS-P (10 mM Phosphate, 150 mM NaCl, pH 7.4, 0.005% P-20) was used as the running buffer and a HAT-optimized binding buffer (50 mM HEPES, pH 7.4, 500 mM NaCl, 0.05% [v/v] Tween 20, 5 mM DTT, 10% [w/v] glycerol, 2% [v/v] DMSO) was used. A CM5 sensor chip was docked and derivatized by amine coupling to capture anti-GST antibody using freshly prepared 1:1 50 mM NHS (N-hydroxysuccinamide): 200 mM EDC (1-ethyl-3-(3-(dimethylamino) propyl) carbodiimide) followed by immobilization of GST-Tip60 protein (Abcam: ab2686960). Direct binding was determined by injecting ligands in duplicates at concentrations spanning 0.0078 μM to 50 μM with running buffer injections in between. DMSO corrections were performed as described previously. The corrected responses were transformed into % bound sites and plotted against the compound concentration. The concentration of Tip60 on the surface was estimated using [Tip60]=response (captured RU)/100*MW. To plot the % bound isotherm as a function of concentration, it is assumed that binding is 1:1 and the following equation is used: % A bound to B is 100AB/Bt=[Kd+At+Bt-SQRT((Kd+At+Bt)2−4*At*Bt)]/(2*Bt) where A=C and B=Tip60.

Tip60 = biological target: T2, Tip60 (Homo sapiens, UniProt Q92993); assay: In vitro histone acetylation activity assay (Tip60); format: biochemical; conditions: for effect on Tip60's HAT activity (Histone H4 acetylation, fluorescence): 20 μM compound, vs Tip60+DMSO
T2 construct: purchased Active Motif 81975
Description: HAT assays were performed according to manufacturer's instructions in HAT Assay Kit (Active Motif 56100). Briefly, 375 ng Tip60 protein (Active motif: 81975) was incubated with 50 μM Histone H4 peptide, 50 μM Acetyl-CoA and indicated drug concentrations for 30 minutes at room temperature. After stopping the reaction and developing free sulfhydryl groups, […] was recorded at excitation 360-390 nm and emission 460-490 nm using Glomax fluorescence microplate reader. Specific enzyme activity (pmol/min/μg) was calculated by 1. Subtracting background fluorescence from that of assay samples to obtain arbitrary fluorescence units (AFU); and (2) Dividing the difference by the incubation time to obtain AFU/minute. 3. Dividing the AFU/minute by the slope of standard curve in AFU/pmol to obtain the rate in pmol/minute. 4. Dividing pmol/min by the amount of enzyme used to obtain final readings in pmol/minute/μg.

T1 sequence (Q92993 whole entry): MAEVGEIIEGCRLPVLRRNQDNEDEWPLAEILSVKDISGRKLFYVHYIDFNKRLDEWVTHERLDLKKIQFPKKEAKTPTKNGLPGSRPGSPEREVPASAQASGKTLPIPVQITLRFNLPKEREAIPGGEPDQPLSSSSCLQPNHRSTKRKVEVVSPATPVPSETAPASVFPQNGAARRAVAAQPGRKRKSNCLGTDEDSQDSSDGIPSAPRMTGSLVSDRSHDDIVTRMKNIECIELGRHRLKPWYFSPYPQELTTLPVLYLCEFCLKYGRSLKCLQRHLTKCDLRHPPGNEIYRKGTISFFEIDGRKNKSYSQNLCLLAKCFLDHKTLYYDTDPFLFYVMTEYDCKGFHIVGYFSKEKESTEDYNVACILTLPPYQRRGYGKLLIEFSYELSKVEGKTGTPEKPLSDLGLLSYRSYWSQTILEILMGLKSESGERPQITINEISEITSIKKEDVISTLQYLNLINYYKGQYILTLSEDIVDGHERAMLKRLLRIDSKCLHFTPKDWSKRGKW
T2 sequence (Q92993 whole entry): as above

For `CCOc1ccccc1C(=O)Nc1ccc(Cl)c(C(F)(F)F)c1` [Compound C1, N-(4-chloro-3-(trifluoromethyl)phenyl)-2-ethoxybenzamide], the “rescue of locomotor defects (larval speed), performance as compared to CTB” value (from here on “rescue of locomotor defects … compared to CTB”) [1] was “low-performing compounds”.

For `O=C(Nc1ccc(Cl)c(C(F)(F)F)c1)c1ccccc1OC[C@H]1CCCO1` [Compound C3, (R)-N-(4-chloro-3-(trifluoromethyl)phenyl)-2-((tetrahydrofuran-2-yl)methoxy)benzamide], the “rescue of locomotor defects … compared to CTB” value [1] was “low-performing compounds”.

In the case of `Cc1cc(-c2ccccc2)cc(C(=O)NNS(=O)(=O)c2ccccc2)c1F` [WM8014, N′-(4-fluoro-5-methyl-[1,1′-bipheny1]-3-carbonyl)benzenesulfonohydrazide], the Subtracted response (GST-Tip60 protein; 0.0078 μM) is reported as 8.58, the “Corrected Response” value (GST-Tip60 protein; 0.0078 μM) is reported as 0.127 and the Subtracted response (GST-Tip60 protein; 0.023 μM) is reported as 7.78. For the same molecule, the “Corrected Response” value (GST-Tip60 protein; 0.023 μM) was 0.1151, the Subtracted response (GST-Tip60 protein; 0.07 μM) was 7.42 and the “Corrected Response” value (GST-Tip60 protein; 0.07 μM) was 0.1098. For the same molecule, the Subtracted response (GST-Tip60 protein; 0.21 μM) was 7.24, the “Corrected Response” value (GST-Tip60 protein; 0.21 μM) was 0.1072 and the Subtracted response (GST-Tip60 protein; 0.63 μM) was 7.51. The “Corrected Response” value (GST-Tip60 protein; 0.63 μM) was 0.1111, the Subtracted response (GST-Tip60 protein; 1.85 μM) was 8.17 and the “Corrected Response” value (GST-Tip60 protein; 1.85 μM) was 0.1209. For the same molecule, the Subtracted response (GST-Tip60 protein; 5.56 μM) was 11.34, the “Corrected Response” value (GST-Tip60 protein; 5.56 μM) was 0.1678 and the Subtracted response (GST-Tip60 protein; 17 μM) was 22.255. For the same molecule, the “Corrected Response” value (GST-Tip60 protein; 17 μM) was 0.3294, the Subtracted response (GST-Tip60 protein; 50 μM) was 61.705 and the “Corrected Response” value (GST-Tip60 protein; 50 μM) was 0.9132.

For `CCOc1cccc(OCCN(C)C)c1C(=O)Nc1ccc(Cl)c(C(F)(F)F)c1` [Compound C5, N-(4-chloro-3-(trifluoromethyl)phenyl)-2-(2-(dimethylamino)ethoxy)-6-ethoxybenzamide], the “rescue of locomotor defects … compared to CTB” value [1] was “highest performers”.

`CCOCC[C@@H](O)COc1ccccc1C(=O)Nc1ccc(Cl)c(C(F)(F)F)c1` [Compound C10, (R)-N-(4-chloro-3-(trifluoromethyl)phenyl)-2-(4-ethoxy-2-hydroxybutoxy)benzamide] was tested, and the “rescue of locomotor defects … compared to CTB” value [1] was “low-performing compounds”.

`O=C(Nc1ccc(Cl)c(C(F)(F)F)c1)c1ccccc1OC[C@H]1CCCS1(=O)=O` [Compound C8, (R)-N-(4-chloro-3-(trifluoromethyl)phenyl)-2-((1,1-dioxidotetrahydrothiophen-2-yl)methoxy)benzamide] was tested, and the “rescue of locomotor defects … compared to CTB” value [1] was “highest performers”.

In the case of `O=C(NCc1ccccc1Cn1cncn1)c1cn(Cc2ccccc2)c2ccccc12` [Compound P11, N-(2-((1H-1,2,4-triazol-1-yl)methyl)benzyl)-1-benzyl-1H-indole-3-carboxamide], the “effect on Tip60's HAT activity (Histone H4 acetylation, fluorescence)” value (Tip60) is reported as “enhanced Tip60's HAT activity”.

For `COc1ccc(NCc2c(OCc3ccc(F)cc3)ccc3ccccc23)cc1Cl` [Compound P9, 3-chloro-N-((2-((4-fluorobenzyl)oxy)naphthalen-1-yl)methyl)-4-methoxyaniline], the “effect on Tip60's HAT activity (Histone H4 acetylation, fluorescence)” value (Tip60) was “enhanced Tip60's HAT activity”.

`CC(C)Oc1ccccc1C(=O)Nc1ccc(Cl)c(C(F)(F)F)c1` [Compound C6, N-(4-chloro-3-(trifluoromethyl)phenyl)-2-isopropoxybenzamide] was tested, and the “rescue of locomotor defects … compared to CTB” value [1] was “low-performing compounds”.

For `O=C(Nc1ccc(Cl)c(C(F)(F)F)c1)c1ccccc1OC[C@@H]1CCCS1(=O)=O` [Compound C7, (S)-N-(4-chloro-3-(trifluoromethyl)phenyl)-2-((1,1-dioxidotetrahydrothiophen-2-yl)methoxy)benzamide], the “rescue of locomotor defects … compared to CTB” value [1] was “low-performing compounds”.

With `O=C(Nc1ccc(Cl)c(C(F)(F)F)c1)c1ccccc1OCC(=O)N1CCOCC1` [Compound C4, N-(4-chloro-3-(trifluoromethyl)phenyl)-2-(2-morpholino-2-oxoethoxy)benzamide] the “rescue of locomotor defects … compared to CTB” value [1] was “did not show an effect even at high concentrations”.

For `O=C(Nc1ccc(Cl)c(C(F)(F)F)c1)c1ccccc1OC[C@@H]1CCCO1` [Compound C2, (S)-N-(4-chloro-3-(trifluoromethyl)phenyl)-2-((tetrahydrofuran-2-yl)methoxy)benzamide], the “rescue of locomotor defects … compared to CTB” value [1] was “highest performers”.

In the case of `CCCCCCCCCCCCCCCc1cccc(OCC)c1C(=O)Nc1ccc(Cl)c(C(F)(F)F)c1` [CTPB, N-(4-chloro-3-(trifluoromethyl)phenyl)-2-ethoxy-6-pentadecylbenzamide], the Subtracted response (GST-Tip60 protein; 0.0078 μM) is reported as 8.525, the “Corrected Response” value (GST-Tip60 protein; 0.0078 μM) is reported as 0.1381 and the Subtracted response (GST-Tip60 protein; 0.023 μM) is reported as 8.62. For the same molecule, the “Corrected Response” value (GST-Tip60 protein; 0.023 μM) was 0.1396, the Subtracted response (GST-Tip60 protein; 0.07 μM) was 8.545 and the “Corrected Response” value (GST-Tip60 protein; 0.07 μM) was 0.1384. The Subtracted response (GST-Tip60 protein; 0.21 μM) was 8.575, the “Corrected Response” value (GST-Tip60 protein; 0.21 μM) was 0.1389 and the Subtracted response (GST-Tip60 protein; 0.63 μM) was 8.99. For the same molecule, the “Corrected Response” value (GST-Tip60 protein; 0.63 μM) was 0.1456, the Subtracted response (GST-Tip60 protein; 1.85 μM) was 10.085 and the “Corrected Response” value (GST-Tip60 protein; 1.85 μM) was 0.1634. For the same molecule, the Subtracted response (GST-Tip60 protein; 5.56 μM) was 13.355, the “Corrected Response” value (GST-Tip60 protein; 5.56 μM) was 0.2164 and the Subtracted response (GST-Tip60 protein; 17 μM) was 25.005. The “Corrected Response” value (GST-Tip60 protein; 17 μM) was 0.4051, the Subtracted response (GST-Tip60 protein; 50 μM) was 66.335 and the “Corrected Response” value (GST-Tip60 protein; 50 μM) was 1.075. For the same molecule, the “rescue of locomotor ability (larval speed)” value [1] was “significant rescue for locomotor ability”.

For `CCOCC[C@H](O)COc1ccccc1C(=O)Nc1ccc(Cl)c(C(F)(F)F)c1` [Compound C9, (S)-N-(4-chloro-3-(trifluoromethyl)phenyl)-2-(4-ethoxy-2-hydroxybutoxy)benzamide], the “rescue of locomotor defects … compared to CTB” value [1] was “low-performing compounds”.

For `CCOc1ccccc1C(=O)Nc1ccc(Cl)c(C(F)(F)F)c1` [CTB, N-(4-chloro-3-(trifluoromethyl)phenyl)-2-ethoxybenzamide], the “% Bound sites” value (GST-Tip60 protein; 0.0078 μM) was 0.05241%, the Subtracted response (GST-Tip60 protein; 0.0078 μM) was 8.34 and the “Corrected Response” value (GST-Tip60 protein; 0.0078 μM) was 0.1326. For the same molecule, the “% Bound sites” value (GST-Tip60 protein; 0.023 μM) was 0.04999%, the Subtracted response (GST-Tip60 protein; 0.023 μM) was 7.955 and the “Corrected Response” value (GST-Tip60 protein; 0.023 μM) was 0.1265. The “% Bound sites” value (GST-Tip60 protein; 0.07 μM) was 0.04921%, the Subtracted response (GST-Tip60 protein; 0.07 μM) was 7.83 and the “Corrected Response” value (GST-Tip60 protein; 0.07 μM) was 0.1245. For the same molecule, the “% Bound sites” value (GST-Tip60 protein; 0.21 μM) was 0.04955%, the Subtracted response (GST-Tip60 protein; 0.21 μM) was 7.885 and the “Corrected Response” value (GST-Tip60 protein; 0.21 μM) was 0.1254. For the same molecule, the “% Bound sites” value (GST-Tip60 protein; 0.63 μM) was 0.0526%, the Subtracted response (GST-Tip60 protein; 0.63 μM) was 8.37 and the “Corrected Response” value (GST-Tip60 protein; 0.63 μM) was 0.1331. For the same molecule, the “% Bound sites” value (GST-Tip60 protein; 1.85 μM) was 0.05923%, the Subtracted response (GST-Tip60 protein; 1.85 μM) was 9.425 and the “Corrected Response” value (GST-Tip60 protein; 1.85 μM) was 0.1499. The “% Bound sites” value (GST-Tip60 protein; 5.56 μM) was 0.07928%, the Subtracted response (GST-Tip60 protein; 5.56 μM) was 12.615 and the “Corrected Response” value (GST-Tip60 protein; 5.56 μM) was 0.2006. For the same molecule, the “% Bound sites” value (GST-Tip60 protein; 17 μM) was 0.1511%, the Subtracted response (GST-Tip60 protein; 17 μM) was 24.05 and the “Corrected Response” value (GST-Tip60 protein; 17 μM) was 0.3824. The “% Bound sites” value (GST-Tip60 protein; 50 μM) was 0.4056%, the Subtracted response (GST-Tip60 protein; 50 μM) was 64.54 and the “Corrected Response” value (GST-Tip60 protein; 50 μM) was 1.026. For the same molecule, the Kd (GST-Tip60 protein; SPR, 25° C., read-out: KD (dissociation constant)) was 28.6 µM, the “rescue of locomotor ability (larval speed)” value [1] was “significant rescue for locomotor ability” and the “effect on Tip60's HAT activity” value (Tip60; CTB, low micromolar concentrations) was “directly enhance Tip60's HAT activity”.
